Data taken from PMC10976095 (Vaccines, 2024).
Where a SMILES comes first, the peptide text is derived from it.

Columns and labels:
Test in all cases: biochemical
Type in all cases: binding
HLA-A*26:01 = HLA-A*26:01 (Homo sapiens, UniProt P04439, A114D/A173T/A270S/D101N/D185E/E277Q/E87N/F33Y/G231S/I121R/I218V/K168Q/L180W/L300P/L318F/P208A/P217A/Q86R/Q94H/R138Q/S129P/T187R/T323A/T345S/V100A/V358M)
HLA-B*07:02 = HLA-B*07:02 (Homo sapiens, UniProt P01889)
HLA-A*68:02 = HLA-A*68:02 (Homo sapiens, UniProt P04439, A269V/D140Y/D185E/E176V/E277Q/E87N/F33Y/G231S/I121R/I166T/I218V/L180W/L300P/L318F/N151K/P208A/P217A/Q86R/R138H/R169H/S129P/T345S/V36M)
HLA-A*03:01 = HLA-A*03:01 (Homo sapiens, UniProt P04439)
HLA-A*11:01 = HLA-A*11:01 (Homo sapiens, UniProt P04439, A114D/D185E/E176A/F33Y/L180Q/S129P/T187R)
HLA-A*68:01 = HLA-A*68:01 (Homo sapiens, UniProt P04439, A269V/D185E/E176V/E277Q/E87N/F33Y/G231S/I121M/I166T/I218V/L180W/L300P/L318F/N151K/P208A/P217A/Q86R/R169H/T345S)
HLA-A*30:01 = HLA-A*30:01 (Homo sapiens, UniProt P04439, D140H/D185E/E176W/F33S/G80R/H175R/K168Q/R138E/R41S)
HLA-A*31:01 = HLA-A*31:01 (Homo sapiens, UniProt P04439, A270S/D185E/E176V/E277Q/F33T/G231S/G80R/H175R/I121M/I218V/I322F/K168Q/L300P/L318F/M331R/P217A/Q94H/R138Q/T323A/T345S/T97I/V358M)

| SMILES | IC50 (HLA-A*26:01) [nM] | IC50 (HLA-B*07:02) [nM] | IC50 (HLA-A*68:02) [nM] | IC50 (HLA-A*03:01) [nM] | IC50 (HLA-A*11:01) [nM] | IC50 (HLA-A*68:01) [nM] | IC50 (HLA-A*30:01) [nM] | IC50 (HLA-A*31:01) [nM] |
| --- | --- | --- | --- | --- | --- | --- | --- | --- |
| CC(C)C[C@H](NC(=O)[C@H](C)NC(=O)[C@H](CCC(N)=O)NC(=O)[C@H](CCCCN)NC(=O)[C@H](Cc1ccccc1)NC(=O)[C@H](CO)NC(=O)[C@H](C)NC(=O)[C@@H](NC(=O)[C@@H](N)CCC(=O)O)C(C)C)C(=O)O [EVASFKQAL] (H-EVASFKQAL-OH) | 86 | 250 | 2.7 | – | – | – | – | – |
| CC(C)C[C@H](NC(=O)[C@H](CO)NC(=O)[C@H](CS)NC(=O)[C@H](Cc1ccccc1)NC(=O)[C@H](CO)NC(=O)[C@@H](N)CC(C)C)C(=O)N[C@@H](Cc1ccccc1)C(=O)N[C@@H](CC(C)C)C(=O)N1CCC[C@H]1C(=O)N[C@@H](CCCCN)C(=O)O (H-LSFCSLFLPK-OH) | – | – | – | 4.3 | 0.68 | 1 | 238 | 686 |
